Results taken from US5374765A, “Method for extracting an amino acid ester from a hydrous solution of a mineral acid salt thereof” (priority 1990, dated 1994).

Test: Extraction of amino acid ester from aqueous mineral acid salt solution into 1,2-dichloroethane at constant pH (Table 1)
Method: 0.1 mole of a mineral acid salt of an amino acid ester, shown in Table 1 was dissolved or suspended in 30 g of water. Thereto was added 60 g of 1,2-dichloroethane. While the mixture was kept at 20°-25° C. and stirred, a 20% water solution of sodium hydroxide was dropwise added thereto in 0.5 hour, and then stirring and extraction were carried out for 0.5 hour while the pH of the aqueous layer was kept at a constant level in the range of 6.5-8.5. The organic layer was separated from the aqueous layer. Then, there were measured percent extraction of fed amino acid ester in organic layer, percent remaining of said ester in aqueous layer, and percent hydrolysis of said ester in aqueous layer (the hydrolyzed ester remains in the aqueous layer as an amino acid).

[1] = pH 6.5, 20-25 °C, 1,2-dichloroethane
[2] = pH 7.5, 20-25 °C, 1,2-dichloroethane
[3] = pH 8.5, 20-25 °C, 1,2-dichloroethane

Row | Compound | Ester in aqueous layer, percent hydrolysis [1] [%] | Ester in aqueous layer, percent remaining [1] [%] | Percent extraction of ester in organic layer [1] [%] | Ester in aqueous layer, percent hydrolysis [2] [%] | Ester in aqueous layer, percent remaining [2] [%] | Percent extraction of ester in organic layer [2] [%] | Ester in aqueous layer, percent hydrolysis [3] [%] | Ester in aqueous layer, percent remaining [3] [%] | Percent extraction of ester in organic layer [3] [%] | Ester in aqueous layer, percent remaining (pH 6.5) [%] | Ester in aqueous layer, percent remaining (pH 7.5) [%] | Ester in aqueous layer, percent remaining (pH 8.5) [%] | Ester in aqueous layer, percent hydrolysis (water/1,2-dichloroethane, pH 6.5) [%] | Ester in aqueous layer, percent hydrolysis (water/1,2-dichloroethane, pH 7.5) [%] | Ester in aqueous layer, percent hydrolysis (water/1,2-dichloroethane, pH 8.5) [%]
1 | CCOC(=O)c1ccccc1N.Cl [Ethyl o-aminobenzoate hydrochloride] | 0 | 6 | 94 | 1 | 2 | 97 | 3 | 1 | 96 | – | – | – | – | – | –
2 | COC(=O)[C@@H](N)CCCCN.Cl [Methyl L-lysinate hydrochloride] | 0 | 18 | 82 | 0 | 9 | 91 | 3 | 3 | 94 | – | – | – | – | – | –
3 | Cl.N[C@@H](Cc1ccccc1)C(=O)OCc1ccccc1 [Benzyl L-phenylalaninate hydrochloride] | 0 | 6 | 94 | 0 | 1 | 99 | – | 1 | 97 | – | – | – | – | – | –
4 | Cl.N[C@@H](Cc1ccccc1)C(=O)Oc1ccccc1 [Phenyl L-phenylalaninate hydrochloride] | 0 | 6 | 94 | 2 | 1 | 97 | 7 | 1 | 92 | – | – | – | – | – | –
5 | COC(=O)[C@@H](N)CO.Cl [Methyl L-serinate hydrochloride] | 0 | 14 | 86 | 0 | 5 | 95 | 4 | 2 | 94 | – | – | – | – | – | –
6 | CCOC(=O)[C@@H](N)Cc1ccccc1.Cl [Ethyl L-phenylalaninate hydrochloride] | 0 | 8 | 92 | 0 | 2 | 98 | 3 | 1 | 96 | – | – | – | – | – | –
7 | Methyl L-aspartate hydrochloride | – | – | 88 | – | – | 96 | – | – | 96 | 12 | 3 | 1 | 0 | 1 | 3
8 | COC(=O)CCCN.Cl [Methyl γ-aminobutyrate hydrochloride] | 0 | 11 | 89 | 0 | 4 | 96 | 3 | 2 | 95 | – | – | – | – | – | –
